From publication PMC4529466, “Intradermal insulin infusion achieves faster insulin action than subcutaneous infusion for 3-day wear” (Drug Delivery and Translational Research, 2015)

Test system: blood glucose
Test: Postprandial blood glucose pharmacodynamics after meal bolus, 3-day ID vs SC infusion
Type: in vivo, human (T1DM patients)
Settings: SC; for BGavg0–1 / BGmax0–1 / ΔAUC-BG0–1 / ΔBGmax0–1 / BGavg0–1.5 / BGmax0–1.5 / ΔAUC-BG0–1.5 / ΔBGmax0–1.5 / BGavg0–2 / BGmax0–2 / ΔAUC-BG0–2 / ΔBGmax0–2 / BGavg0–4 / BGmax0–4 / ΔAUC-BG0–4 / ΔBGmax0–4 / BG1 / ΔBG1 / BG1.5 / ΔBG1.5 / BG2 / ΔBG2 / BG4 / ΔBG4: mean ± SD; for BG1 / ΔBG1: at 1 h; for BG1.5 / ΔBG1.5: at 1.5 h; for BG2 / ΔBG2: at 2 h; for BG4 / ΔBG4: at 4 h
Source text: This was a single center, open-label, two-period crossover study, randomized by infusion order, in T1DM patients on continuous subcutaneous insulin infusion (CSII). The protocol was approved by an independent ethics committee (Ethikkommission der Ärztekammer Nordrhein, Düsseldorf, Germany), appropriate regulatory bodies (German Federal Institute for Drugs and Medical Devices (BfArM)), and conducted in compliance with good clinical practice (GCP), the Declaration of Helsinki, and applicable regulatory requirements.
The study was completed over a multi-week period consisting of three study visits: a screening visit (V1) and two interventional visits (V2 and V3). After establishing eligibility and enrollment, patients received treatment during two interventional visits: one SC and one ID basal/bolus infusion of insulin aspart (NovoRapid® U-100, Novo Nordisk, Copenhagen, Denmark) administered over 3 days in a randomized order.
Individual meal bolus doses were determined based on patient self-reported insulin to carbohydrate ratios and insulin sensitivity, historical self-reported insulin usage for meal coverage, and clinician review and adjustment of insulin usage during the in-clinic BG stabilization period the evening prior to the first morning meal. Basal insulin infusion rates were initiated based on the patient’s known daily delivery profile and could be adjusted by the clinician to maintain levels within 70–160 mg/dL according to a predetermined sliding scale and hourly changes in glycemia. A continuous glucose monitor (Seven Plus®, DexCom Inc., San Diego, CA) calibrated per manufacturer’s recommendations was applied to continuously monitor glycemia as a safety measure, in addition to periodic blood sampling for BG determination.
After maintaining targeted blood glucose range during the preceding night, bolus insulin doses were administered via the respective infusion catheter prior to standardized breakfast and lunch test meals on each of the three treatment days. Each meal insulin bolus was calculated based on the patient’s insulin sensitivity and previous hours change in BG per sliding scale then delivered immediately prior to breakfast (t = 0 min) and lunch (t = 360 min) consumption. Breakfast was a high glycemic index (60 g carbohydrates) solid meal, and lunch was a mixed meal based on the individual’s calculated daily energy intake and equivalent in caloric composition by day. Breakfast and lunch meals were consumed within 15 min followed by serial blood sampling with BG monitoring for a period of 6 and 4 h, respectively. Patients were asked to remain sedentary for 2 h after meals. Identical study procedures were utilized for the remaining dosing visit days (Fig. 2).
To assess insulin absorption kinetics and glycemic response, blood samples for measurements of insulin aspart and blood glucose in serum were drawn at predefined time points throughout dosing visits. Serial samples for safety BG determination, but not PK analysis, were obtained at a minimum every 2 h. Meal PK/PD analysis samples were acquired immediately pre-bolus and for 4–6 h post-bolus for breakfast and lunch meals, with a higher frequency during the first 2 h to capture insulin and BG peak levels {Post-bolus breakfast time points (min): 0, 10, 15, 20, 25, 30, 35, 40, 45, 50, 55, 60, 65, 70, 80, 90, 120, 150, 180, 210, 240, 300, 330, 360; Post-bolus lunch time points (min): 0, 10, 20, 30, 40, 50, 60, 70, 80, 90, 120, 180, 240, 300}. Sampling times were based on previous clinical study experience for bolus microneedle insulin delivery and had increased sampling frequency in the first 90 min post-delivery to capture the rapid insulin peaks from microneedle ID delivery. Blood samples for evening meal and basal period PK assessment could not be obtained due to daily blood draw volume limits for patient safety. Serum insulin aspart was measured by a third party laboratory (IKFE GmbH, Mainz, Germany) using a validated insulin assay (Invitron ELISA kit). […]

[1] = 0–1 h, Days 1–3 combined, all test meals, n = 150–156
[2] = 0–1 h, across all study days and meals
[3] = 0–1.5 h, Days 1–3 combined, all test meals, n = 150–156
[4] = 0–1.5 h, across all study days and meals
[5] = 0–2 h, Days 1–3 combined, all test meals, n = 150–156
[6] = 0–2 h, across all study days and meals
[7] = 0–4 h, Days 1–3 combined, all test meals, n = 150–156
[8] = Days 1–3 combined, all test meals, n = 150–156

Substance: insulin aspart
- BG at 1 h: 165
- BGavg0–1 (0–1 h, Day 1, across meals): 138 ± 33.4 mg/dL
- BGmax0–1 (0–1 h, Day 1, across meals): 166 ± 40.1 mg/dL
- ΔAUC-BG0–1 (0–1 h, Day 1, across meals): 29.1 ± 25.7 mg·h/dL
- ΔBGmax0–1 (0–1 h, Day 1, across meals): 57.1 ± 36.0 mg/dL
- BGavg0–1 (0–1 h, Day 2, across meals): 147 ± 32.5 mg/dL
- BGmax0–1 (0–1 h, Day 2, across meals): 176 ± 39.2 mg/dL
- ΔAUC-BG0–1 (0–1 h, Day 2, across meals): 26.7 ± 20.9 mg·h/dL
- ΔBGmax0–1 (0–1 h, Day 2, across meals): 55.8 ± 31.0 mg/dL
- BGavg0–1 (0–1 h, Day 3, across meals): 145 ± 30.3 mg/dL
- BGmax0–1 (0–1 h, Day 3, across meals): 175 ± 37.9 mg/dL
- ΔAUC-BG0–1 (0–1 h, Day 3, across meals): 26.5 ± 19.5 mg·h/dL
- ΔBGmax0–1 (0–1 h, Day 3, across meals): 57.2 ± 33.0 mg/dL
- BGavg0–1 [1]: 143 ± 32.2 mg/dL
- BGmax0–1 [1]: 172 ± 39.2 mg/dL
- ΔAUC-BG0–1 [1]: 27.5 ± 22.2 mg·h/dL
- ΔBGmax0–1 [1]: 56.7 ± 33.3 mg/dL
- Intra-subject variability of BGavg [2]: 18.2 %CV
- Intra-subject variability of BGmax [2]: 18.1 %CV
- BGavg0–1.5 (0–1.5 h, Day 1, across meals): 144 ± 36.0 mg/dL
- BGmax0–1.5 (0–1.5 h, Day 1, across meals): 174 ± 43.6 mg/dL
- ΔAUC-BG0–1.5 (0–1.5 h, Day 1, across meals): 53.4 ± 46.7 mg·h/dL
- ΔBGmax0–1.5 (0–1.5 h, Day 1, across meals): 65.0 ± 42.3 mg/dL
- BGavg0–1.5 (0–1.5 h, Day 2, across meals): 154 ± 35.3 mg/dL
- BGmax0–1.5 (0–1.5 h, Day 2, across meals): 182 ± 41.7 mg/dL
- ΔAUC-BG0–1.5 (0–1.5 h, Day 2, across meals): 50.8 ± 40.9 mg·h/dL
- ΔBGmax0–1.5 (0–1.5 h, Day 2, across meals): 61.6 ± 33.2 mg/dL
- BGavg0–1.5 (0–1.5 h, Day 3, across meals): 152 ± 33.4 mg/dL
- BGmax0–1.5 (0–1.5 h, Day 3, across meals): 182 ± 40.0 mg/dL
- ΔAUC-BG0–1.5 (0–1.5 h, Day 3, across meals): 51.3 ± 39.8 mg·h/dL
- ΔBGmax0–1.5 (0–1.5 h, Day 3, across meals): 63.9 ± 36.8 mg/dL
- BGavg0–1.5 [3]: 150 ± 35.0 mg/dL
- BGmax0–1.5 [3]: 179 ± 41.8 mg/dL
- ΔAUC-BG0–1.5 [3]: 51.9 ± 42.5 mg·h/dL
- ΔBGmax0–1.5 [3]: 63.6 ± 37.6 mg/dL
- Intra-subject variability of BGavg [4]: 18.2 %CV
- Intra-subject variability of BGmax [4]: 17.9 %CV
- BGavg0–2 (0–2 h, Day 1, across meals): 147 ± 39.3 mg/dL
- BGmax0–2 (0–2 h, Day 1, across meals): 178 ± 49.1 mg/dL
- ΔAUC-BG0–2 (0–2 h, Day 1, across meals): 77.0 ± 73.2 mg·h/dL
- ΔBGmax0–2 (0–2 h, Day 1, across meals): 69.7 ± 49.0 mg/dL
- BGavg0–2 (0–2 h, Day 2, across meals): 157 ± 38.2 mg/dL
- BGmax0–2 (0–2 h, Day 2, across meals): 186 ± 43.4 mg/dL
- ΔAUC-BG0–2 (0–2 h, Day 2, across meals): 73.6 ± 63.3 mg·h/dL
- ΔBGmax0–2 (0–2 h, Day 2, across meals): 65.5 ± 34.7 mg/dL
- BGavg0–2 (0–2 h, Day 3, across meals): 155 ± 36.1 mg/dL
- BGmax0–2 (0–2 h, Day 3, across meals): 186 ± 42.4 mg/dL
- ΔAUC-BG0–2 (0–2 h, Day 3, across meals): 75.1 ± 63.0 mg·h/dL
- ΔBGmax0–2 (0–2 h, Day 3, across meals): 68.1 ± 40.3 mg/dL
- BGavg0–2 [5]: 153 ± 38.0 mg/dL
- BGmax0–2 [5]: 183 ± 45.1 mg/dL
- ΔAUC-BG0–2 [5]: 75.3 ± 66.5 mg·h/dL
- ΔBGmax0–2 [5]: 67.8 ± 41.8 mg/dL
- Intra-subject variability of BGavg [6]: 19.3 %CV
- Intra-subject variability of BGmax [6]: 18.5 %CV
- BGavg0–4 (0–4 h, Day 1, across meals): 142 ± 41.2 mg/dL
- BGmax0–4 (0–4 h, Day 1, across meals): 179 ± 44.4 mg/dL
- ΔAUC-BG0–4 (0–4 h, Day 1, across meals): 133 ± 160 mg·h/dL
- ΔBGmax0–4 (0–4 h, Day 1, across meals): 76.5 ± 54.6 mg/dL
- BGavg0–4 (0–4 h, Day 2, across meals): 155 ± 44.0 mg/dL
- BGmax0–4 (0–4 h, Day 2, across meals): 193 ± 49.3 mg/dL
- ΔAUC-BG0–4 (0–4 h, Day 2, across meals): 140 ± 157 mg·h/dL
- ΔBGmax0–4 (0–4 h, Day 2, across meals): 72.3 ± 40.0 mg/dL
- BGavg0–4 (0–4 h, Day 3, across meals): 156 ± 40.1 mg/dL
- BGmax0–4 (0–4 h, Day 3, across meals): 194 ± 41.7 mg/dL
- ΔAUC-BG0–4 (0–4 h, Day 3, across meals): 154 ± 148 mg·h/dL
- ΔBGmax0–4 (0–4 h, Day 3, across meals): 76.2 ± 40.4 mg/dL
- BGavg0–4 [7]: 151 ± 42.0 mg/dL
- BGmax0–4 [7]: 188 ± 45.4 mg/dL
- ΔAUC-BG0–4 [7]: 142 ± 155 mg·h/dL
- ΔBGmax0–4 [7]: 75.0 ± 45.6 mg/dL
- Intra-subject variability of BGmax (0–4 h, across all study days and meals): 18.0 %CV
- BG1 (Day 1, across meals): 158 ± 43.8 mg/dL
- ΔBG1 (Day 1, across meals): 49.0 ± 41.5 mg/dL
- BG1 (Day 2, across meals): 169 ± 40.9 mg/dL
- ΔBG1 (Day 2, across meals): 48.8 ± 37.9 mg/dL
- BG1 (Day 3, across meals): 170 ± 40.9 mg/dL
- ΔBG1 (Day 3, across meals): 51.8 ± 37.9 mg/dL
- BG1 [8]: 165 ± 42.1 mg/dL
- ΔBG1 [8]: 49.8 ± 39.0 mg/dL
- BG1.5 (Day 1, across meals): 156 ± 51.2 mg/dL
- ΔBG1.5 (Day 1, across meals): 47.5 ± 51.9 mg/dL
- BG1.5 (Day 2, across meals): 167 ± 48.3 mg/dL
- ΔBG1.5 (Day 2, across meals): 47.2 ± 44.8 mg/dL
- BG1.5 (Day 3, across meals): 167 ± 48.3 mg/dL
- ΔBG1.5 (Day 3, across meals): 48.9 ± 48.1 mg/dL
- BG1.5 [8]: 163 ± 49.3 mg/dL
- ΔBG1.5 [8]: 47.9 ± 48.2 mg/dL
- BG2 (Day 1, across meals): 152 ± 60.1 mg/dL
- ΔBG2 (Day 1, across meals): 43.7 ± 62.7 mg/dL
- BG2 (Day 2, across meals): 164 ± 54.2 mg/dL
- ΔBG2 (Day 2, across meals): 44.0 ± 51.2 mg/dL
- BG2 (Day 3, across meals): 164 ± 52.3 mg/dL
- ΔBG2 (Day 3, across meals): 46.2 ± 52.4 mg/dL
- BG2 [8]: 160 ± 55.7 mg/dL
- ΔBG2 [8]: 44.6 ± 55.6 mg/dL
- BG4 (Day 1, across meals): 139 ± 52.4 mg/dL
- ΔBG4 (Day 1, across meals): 29.7 ± 53.3 mg/dL
- BG4 (Day 2, across meals): 148 ± 59.4 mg/dL
- ΔBG4 (Day 2, across meals): 27.7 ± 56.8 mg/dL
- BG4 (Day 3, across meals): 153 ± 48.9 mg/dL
- ΔBG4 (Day 3, across meals): 35.1 ± 47.2 mg/dL
- BG4 [8]: 146 ± 53.7 mg/dL
- ΔBG4 [8]: 30.8 ± 52.3 mg/dL
- Intra-subject variability of BG (time 1 h, across all study days and meals): 20.2 %CV
- Intra-subject variability of BG (time 1.5 h, across all study days and meals): 24.5 %CV
- Intra-subject variability of ΔBG (time 2 h, across all study days and meals): 61.4 %CV
